Here are results for 1 molecule from BindingDB's records for doi:10.1016/j.bmcl.2009.03.086 (The Scripps Research Institute, 2009).

Experiment [1] concerns the target Mitogen-activated protein kinase 8 (Homo sapiens, UniProt P45983). Briefly: Homogeneous Time-resolved Fluorescence Assay.
Description: (§1) Biochemical IC50s for JNK were determined using HTRF. In each assay the phosphor-Thr71-ATF-2 product was detected using a Europium-cryptate labeled anti-phospho-Thr71-ATF-2 antibody. Streptavidin-allophycocyanin-XL was used as the acceptor. A 10-point dose-response curve for each compound was generated in duplicate and data was fit to a four parameter logistic.
Experiment [2] has as its target Isoform Alpha-1 of Mitogen-activated protein kinase 10 (Alpha-1) 9-402] (Homo sapiens, UniProt P53779). Put plainly: Homogeneous Time-resolved Fluorescence Assay. Particulars: pH 7; 22 °C.
Description: as §1

Chain of Mitogen-activated protein kinase 8 (P45983 whole entry, canonical isoform): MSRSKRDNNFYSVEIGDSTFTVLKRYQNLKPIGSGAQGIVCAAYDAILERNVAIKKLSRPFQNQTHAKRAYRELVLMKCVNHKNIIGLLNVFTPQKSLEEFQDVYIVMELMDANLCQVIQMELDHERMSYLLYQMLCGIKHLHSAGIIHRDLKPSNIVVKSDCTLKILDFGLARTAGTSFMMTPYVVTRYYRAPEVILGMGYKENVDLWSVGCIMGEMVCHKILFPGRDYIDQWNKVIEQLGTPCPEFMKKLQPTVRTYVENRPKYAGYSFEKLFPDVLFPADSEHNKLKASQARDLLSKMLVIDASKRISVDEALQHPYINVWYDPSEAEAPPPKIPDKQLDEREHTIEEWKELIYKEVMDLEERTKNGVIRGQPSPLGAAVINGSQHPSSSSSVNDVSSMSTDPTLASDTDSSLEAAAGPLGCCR
Chain of Isoform Alpha-1 of Mitogen-activated protein kinase 10 (Alpha-1) 9-402] (P53779 39-402): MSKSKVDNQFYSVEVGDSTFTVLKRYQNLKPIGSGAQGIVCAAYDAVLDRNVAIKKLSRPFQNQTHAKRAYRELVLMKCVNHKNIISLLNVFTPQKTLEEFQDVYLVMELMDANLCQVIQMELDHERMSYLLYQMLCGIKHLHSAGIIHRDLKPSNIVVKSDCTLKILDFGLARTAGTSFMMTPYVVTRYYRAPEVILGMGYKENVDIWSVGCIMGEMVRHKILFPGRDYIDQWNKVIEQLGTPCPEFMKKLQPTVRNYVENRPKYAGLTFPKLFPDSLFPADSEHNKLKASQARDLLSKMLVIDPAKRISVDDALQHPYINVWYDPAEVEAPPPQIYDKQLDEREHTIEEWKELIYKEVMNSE

The IC50 is the point on the concentration scale where inhibition reaches its midpoint. A low value points to higher potency. As for `C=CCN1CCN(c2c(Cl)cccc2NC(=O)c2ccc(Br)o2)CC1` [piperazine amide, 6a], the results for the IC50 in experiment [1] and in experiment [2] were 380 nM and 1260 nM, respectively.
